The test system of assay [1] is U-373MG ATCC. The conditions noted are these: Homo sapiens.
Description: Inhibition of carbonic anhydrase 9 mRNA expression in human U373 cells under hypoxic conditions at 4500 nM treated prior to hypoxic-challenge followed by compound addition 12 hrs after first treatment by RT-PCR analysis
The test system of assay [2] is U-87 MG. The conditions noted are these: Homo sapiens; U-87MG ATCC.
Description: Inhibition of carbonic anhydrase 9 mRNA expression in human U87MG cells under hypoxic conditions at 5000 nM treated prior to hypoxic-challenge followed by compound addition 12 hrs after first treatment by RT-PCR analysis
In assay [3] the test system is GAMG. As to the kind of experiment: Inhibition of carbonic anhydrase 9 protein expression in human GaMG cells under hypoxic conditions at 500 nM treated prior to hypoxic-challenge by Western blotting analysis. In kind it is functional, cell-based. (In general: In western blotting, separated proteins are transferred to a membrane and probed.)
Assay [4] relates to U-87 MG. Kind of assay: Inhibition of carbonic anhydrase 9 mRNA expression in human U87MG cells under hypoxic conditions at 500 nM treated prior to hypoxic-challenge by RT-PCR analysis. In kind it is functional, cell-based. The conditions noted are these: U-87MG ATCC.
The subject of assay [5] is U-251. As to the kind of experiment: Inhibition of carbonic anhydrase 9 mRNA expression in human U251 cells under hypoxic conditions at 500 nM treated prior to hypoxic-challenge by RT-PCR analysis. In kind it is functional, cell-based.
Assay [6] has as its system U-373MG ATCC. Kind of assay: Inhibition of carbonic anhydrase 9 mRNA expression in human U373 cells under hypoxic conditions at 500 nM treated prior to hypoxic-challenge by RT-PCR analysis. The class given is functional, cell-based.
In assay [7] the test system is GAMG. Kind of assay: Inhibition of carbonic anhydrase 9 mRNA expression in human GaMG cells under hypoxic conditions at 400 nM treated prior to hypoxic-challenge by RT-PCR analysis. The class given is functional, cell-based.
Assay [8] in a line: Inhibition of carbonic anhydrase 9 protein expression in human U87MG cells under hypoxic conditions at 500 nM treated prior to hypoxic-challenge by Western blotting analysis. The conditions noted are these: U-87MG ATCC. The class given is functional, cell-based.
For assay [9], the system named is U-251. As to the kind of experiment: Inhibition of carbonic anhydrase 9 protein expression in human U251 cells under hypoxic conditions at 500 nM treated prior to hypoxic-challenge by Western blotting analysis. The class given is functional, cell-based.
A short description of assay [10]: Inhibition of carbonic anhydrase 9 protein expression in human U373 cells under hypoxic conditions at 500 nM treated prior to hypoxic-challenge by Western blotting analysis. The class given is functional, cell-based. As to conditions: U-373MG ATCC.

Activity calls are given as the source filed them. No cut-off for these calls is given here.

Take `CC(=O)Nc1nnc(S(N)(=O)=O)s1`: the inhibition entry in assay [1] and in assay [2] was “Active” in each case.
In the case of `CN1C(=O)[C@]2(Cc3cn([C@]45C[C@@]67SS[C@@](CO)(C(=O)N6[C@H]4Nc4ccccc45)N(C)C7=O)c4ccccc34)SS[C@@]1(CO)C(=O)N2C`, the inhibition entry in [3], in [4], in assay [5], in assay [6] and in assay [7] was “Active” in each case. Also, the inhibition entry in assay [8], in assay [9] and in assay [10] was “inactive” each time.

(Values after ChEMBL document CHEMBL2401687, “Hypoxia induced CA9 inhibitory targeting by two different sulfonamide derivatives including acetazolamide in human glioblastoma” (Bioorg Med Chem, 2013).)
